Read-outs that look alike come from different tables or passages of the source.
Experiments:
CYP3A5 [1] = molecular target: T1, CYP3A5 (Homo sapiens, UniProt P20815); settings: cited from earlier work
CYP3A4 [2] = molecular target: T2, CYP3A4 (Homo sapiens, UniProt P08684); settings: cited from earlier work
CYP3A5 [3] = molecular target: T1, CYP3A5; settings: cited from earlier work; remark: listed apart in the source
CYP4503A enzymes = settings: result in words (Wandel et al.); cited from earlier work
CYP3A7 = CYP3A7 (Homo sapiens, UniProt P24462); settings: cited from earlier work
Sequence of CYP3A7 (P24462 whole entry): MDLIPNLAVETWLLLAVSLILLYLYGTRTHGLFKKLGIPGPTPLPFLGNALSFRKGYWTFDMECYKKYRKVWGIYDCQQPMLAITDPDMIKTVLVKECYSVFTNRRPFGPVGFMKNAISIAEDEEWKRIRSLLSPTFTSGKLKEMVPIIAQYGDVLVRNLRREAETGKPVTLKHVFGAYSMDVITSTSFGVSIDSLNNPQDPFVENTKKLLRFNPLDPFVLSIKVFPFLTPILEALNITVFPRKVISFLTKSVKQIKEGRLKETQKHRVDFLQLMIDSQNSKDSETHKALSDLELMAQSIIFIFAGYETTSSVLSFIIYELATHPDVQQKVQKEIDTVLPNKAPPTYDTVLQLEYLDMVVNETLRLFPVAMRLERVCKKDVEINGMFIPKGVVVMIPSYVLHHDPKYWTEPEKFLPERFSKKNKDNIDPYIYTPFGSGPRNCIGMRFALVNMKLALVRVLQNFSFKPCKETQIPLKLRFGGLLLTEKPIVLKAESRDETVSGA

CYP3A = settings: cited from earlier work
CYP4503A5 = CYP4503A5 (Homo sapiens, UniProt P20815); settings: cited from earlier work
Sequence of CYP4503A5 (P20815 whole entry): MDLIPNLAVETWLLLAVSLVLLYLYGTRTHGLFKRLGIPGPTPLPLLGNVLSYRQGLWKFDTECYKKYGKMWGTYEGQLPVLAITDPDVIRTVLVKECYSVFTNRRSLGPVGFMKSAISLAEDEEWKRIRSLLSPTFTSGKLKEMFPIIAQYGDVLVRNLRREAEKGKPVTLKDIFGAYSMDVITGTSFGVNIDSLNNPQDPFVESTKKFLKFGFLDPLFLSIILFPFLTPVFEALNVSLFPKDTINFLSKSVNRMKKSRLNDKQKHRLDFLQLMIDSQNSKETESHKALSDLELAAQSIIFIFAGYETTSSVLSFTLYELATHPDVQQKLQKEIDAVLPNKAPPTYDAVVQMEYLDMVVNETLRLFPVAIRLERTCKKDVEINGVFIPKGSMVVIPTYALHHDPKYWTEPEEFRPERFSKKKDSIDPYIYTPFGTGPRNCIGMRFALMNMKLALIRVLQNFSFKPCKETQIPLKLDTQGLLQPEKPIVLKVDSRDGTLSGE

CYP3A4 [4] = molecular target: T2, CYP3A4; settings: pH 7.4
Protocol: (§1) Midazolam, ^15N3-midazolam, 1′-OH MDZ and 4-OH MDZ were provided by Roche Laboratories. All incubations were performed in duplicate in solutions containing 0.1 M potassium phosphate (pH 7.4) and 20 to 100 μg human liver microsomes or 50 to 100 μg intestinal homogenates or 10 pmol of recombinant CYP3A4 or CYP3A5 (Gentest). Midazolam (final concentration, 8 μM) was added to the diluted tissue preparations, and the mixtures were preincubated at 37° C. for 5 min. We added NADPH (final concentration, 1 mM) to initiate the reaction. Incubation of human liver microsomes lasted for 2 min; incubation of recombinant CYP3A and intestinal samples lasted for 4 min. Reactions were terminated by the addition of 1 mL of ice-cold 0.1 M Na2CO3, pH ˜11. We used NCI GC-MS to measure the quantities of extracted 1′-OH MDZ and 4-OH MDZ (ref. 14). Reaction velocities and product ratios are presented as mean±SD. Statistical comparisons of mean data for different genotypes were performed by using a 2-sided, unpaired t test with unequal variances

CYP3A5 [5] = molecular target: T1, CYP3A5; settings: pH 7.4
Protocol: as §1

[6] = result in words (Wrighton et al.; Gillam et al.)

T2 sequence (P08684 whole entry): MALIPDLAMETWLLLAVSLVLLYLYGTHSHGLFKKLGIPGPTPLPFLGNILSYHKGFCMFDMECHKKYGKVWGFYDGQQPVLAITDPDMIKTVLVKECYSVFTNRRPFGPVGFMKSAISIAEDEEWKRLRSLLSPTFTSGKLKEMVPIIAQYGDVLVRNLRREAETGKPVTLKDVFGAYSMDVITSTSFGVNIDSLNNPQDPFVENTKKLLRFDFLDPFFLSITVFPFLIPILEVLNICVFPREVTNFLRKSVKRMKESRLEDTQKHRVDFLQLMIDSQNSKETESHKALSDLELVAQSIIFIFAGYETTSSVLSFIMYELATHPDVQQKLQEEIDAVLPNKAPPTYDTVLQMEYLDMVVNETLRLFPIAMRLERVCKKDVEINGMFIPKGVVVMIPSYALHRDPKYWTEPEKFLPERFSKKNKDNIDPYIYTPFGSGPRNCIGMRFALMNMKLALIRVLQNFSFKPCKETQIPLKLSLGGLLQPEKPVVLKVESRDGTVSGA
T1 sequence (P20815 whole entry): as the sequence (P20815 whole entry) above

Compound: CC(=O)[C@H]1CC[C@H]2[C@@H]3CCC4=CC(=O)CC[C@]4(C)[C@H]3CC[C@]12C [Progesterone]
- CYP isoforms expressed in cells 3A5 (CYP3A5 [1]; 6β-hydroxylation): ++
- CYP isoforms expressed in cells 3A4 (CYP3A4 [2]): +++

Compound: aflatoxin B1
- 8,9-epoxidation step (activation step) by CYP3A5 (CYP3A5 [3]): efficiently catalyzes
- rate of 3α-hydroxylation (inactivation step) by CYP3A5 relative to CYP3A4 (CYP3A5 [3]): approximately 1%

Compound: CCOC(=O)C1=C(C)NC(C)=C(C(=O)OC)C1c1cccc([N+](=O)[O-])c1 (centres unmarked) [nitrendipine]
- effect on liver microsomal hydroxylation of midazolam (CYP4503A enzymes): inhibits

Compound: NS(=O)(=O)Cc1noc2ccccc12 [Zonisamide]
- CYP isoforms expressed in cells 3A5 (CYP3A5 [1]): +
- CYP isoforms expressed in cells 3A4 (CYP3A4 [2]): +++
- CYP isoforms expressed in cells 3A7 (CYP3A7): ++

Compound: C[C@]12CC[C@H]3[C@@H](CCC4=CC(=O)CC[C@@]43C)[C@@H]1CC[C@@H]2O [Testosterone]
- Catalytic activity in human liver microsomes newborn (%) (CYP3A): 30-40%
- CYP isoforms expressed in cells 3A5 (CYP3A5 [1]): ++
- CYP isoforms expressed in cells 3A4 (CYP3A4 [2]): +++

Compound: COc1ccc2c(c1)[C@]13CCCC[C@@H]1[C@H](C2)N(C)CC3 [Dextromethorphan]
- Catalytic activity in human liver microsomes adult (%) (CYP3A): 100%
- Catalytic activity in human liver microsomes fetus (%) (CYP3A): 30%

Compound: C#C[C@]1(O)CC[C@H]2[C@@H]3CCc4cc(O)ccc4[C@H]3CC[C@@]21C [17α-ethinyl-estradiol]
- CYP3A5 catalytic activity towards substrate (CYP3A5 [3]; [6]): No CYP3A5 catalytic activity

Compound: C[C@]12CCC(=O)CC1CC[C@@H]1[C@@H]2CC[C@]2(C)C(=O)CC[C@@H]12 (some centres unmarked) [Androstanedione]
- CYP isoforms expressed in cells 3A5 (CYP3A5 [1]): ++
- CYP isoforms expressed in cells 3A4 (CYP3A4 [2]): +++
- CYP isoforms expressed in cells 3A7 (CYP3A7): ++

Compound: CCOc1ccc2c3c1O[C@H]1[C@@H](O)C=C[C@H]4[C@@H](C2)N(C)CC[C@@]341 [Ethylmorphine]
- Catalytic activity in human liver microsomes adult (%) (CYP3A; adult, relative to adult rate = 100%): 100%
- Catalytic activity in human liver microsomes fetus (%) (CYP3A; fetus, relative to adult rate = 100%): 100%
- CYP isoforms expressed in cells 3A5 (CYP3A5 [1]): ++
- CYP isoforms expressed in cells 3A4 (CYP3A4 [2]): +
- CYP3A5 catalytic activity towards substrate (CYP3A5 [3]; [6]): considerable catalytic activity

Compound: NC(=O)N1c2ccccc2C=Cc2ccccc21 [Carbamazepine]
- Catalytic activity in human liver microsomes adult (CYP3A; adult, carbamazepine metabolism, result in words): Present
- Catalytic activity in human liver microsomes fetus (CYP3A; fetus, CBZ-E formation (?), result in words): CBZ-E
- CYP isoforms expressed in cells 3A5 (CYP3A5 [1]): ++
- CYP isoforms expressed in cells 3A4 (CYP3A4 [2]): +++
- CYP isoforms expressed in cells 3A7 (CYP3A7): +

Compound: aflatoxins
- CYP3A5 catalytic activity towards substrate (CYP3A5 [3]): No CYP3A5 catalytic activity

Compound: Cc1ncc2n1-c1ccc(Cl)cc1C(c1ccccc1F)=NC2 [Midazolam]
- CYP isoforms expressed in cells 3A5 (CYP3A5 [1]): +++
- alpha- to 4-hydroxylation of midazolam, CYP4503A5 versus CYP4503A3 or CYP4503A4 (CYP4503A5): far greater
- increase of midazolam metabolism with CYP4503A5 expression (CYP4503A5): 2.7
- formation rate of 1-hydroxy-midazolam for CYP3A5 versus CYP3A4 (CYP3A5 [3]): considerably higher
- rate of formation of 4-hydroxy-midazolam with CYP3A4 and CYP3A5 (CYP3A5 [3]): similar
- ratio of 1′-OH MDZ to 4-OH MDZ (CYP3A4 [4]): 5.5
- ratio of 1′-OH MDZ to 4-OH MDZ (CYP3A5 [5]): 16.1

Compound: C[C@]12CCC(=O)C=C1CC[C@@H]1[C@@H]2[C@@H](O)C[C@@]2(C)[C@H]1CC[C@]2(O)C(=O)CO [Cortisol]
- CYP isoforms expressed in cells 3A5 (CYP3A5 [1]): ++
- CYP isoforms expressed in cells 3A4 (CYP3A4 [2]): +++
- CYP isoforms expressed in cells 3A7 (CYP3A7): −

Compound: CN1C(=O)CN=C(c2ccccc2)c2cc(Cl)ccc21 [Diazepam]
- Catalytic activity in human liver microsomes Child (%) (CYP3A): 140 (3-12 mo) %
- Catalytic activity in human liver microsomes adult (%) (CYP3A): 100%
- Catalytic activity in human liver microsomes fetus (%) (CYP3A): <5%
